Active and inactive are the calls of the source. No rule for the calls is given here.

The data set has as its system rodent carcinogenicity bioassays, tumor incidence. The data set is described as follows: CCRIS carcinogenicity studies. In a few lines: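 NCI-built, expert-reviewed records of carcinogenicity and related test outcomes (mutagenicity, tumor promotion/inhibition) compiled from published and report sources, historical span 1985-2011, not updated.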

For `C=CC(=C)Cl`, the carcinogen call is “inactive; negative” (Species: HAMSTER, Strain/Sex: SYRIAN/FEMALE, Route: INHALATION, Dose: 0, 10, 50 PPM 6 HR/D 5 D/WK FOR 18 MO (STUDY DURATION: 18 MO), Dose: 0, 10, 50 PPM 6 HR/D 5 D/WK FOR 18 MO (STUDY DURATION: 18 MO)); “inactive; negative” (Species: HAMSTER, Strain/Sex: SYRIAN/MALE, Route: INHALATION, Dose: 0, 10, 50 PPM 6HR/D 5 D/WK FOR 18 MO (STUDY DURATION: 18 MO), Dose: 0, 10, 50 PPM 6HR/D 5 D/WK FOR 18 MO (STUDY DURATION: 18 MO)); “active; positive” (Species: MOUSE, Strain/Sex: ALBINO/MALE, FEMALE, Route: INHALATION, Dose: 0, 2.9, 19.18, 189 MG/M3 4 HR/D 6 D/WK FOR 7 MO (STUDY DURATION: 8 MO), Dose: 0, 2.9, 19.18, 189 MG/M3 4 HR/D 6 D/WK FOR 7 MO (STUDY DURATION: 8 MO), Tumor Site: Type of Lesion: LUNG: TUMOR); “active; positive” (Species: MOUSE, Strain/Sex: B6C3F1/FEMALE, Route: INHALATION, Dose: 0, 12.8, 32, 80 PPM 6 HR/D 5 D/WK FOR 105 WK (STUDY DURATION: 106 WK), Dose: 0, 12.8, 32, 80 PPM 6 HR/D 5 D/WK FOR 105 WK (STUDY DURATION: 106 WK), Tumor Site: Type of Lesion: LUNG: ALVEOLAR/BRONCHIOLAR ADENOMA, ALVEOLAR/BRONCHIOLAR CARCINOMA, CIRCULATORY SYSTEM: HEMANGIOMA, HEMANGIOSARCOMA, HAR, Tumor Site: Type of Lesion: LUNG: ALVEOLAR/BRONCHIOLAR ADENOMA, ALVEOLAR/BRONCHIOLAR CARCINOMA, CIRCULATORY SYSTEM: HEMANGIOMA, HEMANGIOSARCOMA, HAR); “active; positive” (Species: MOUSE, Strain/Sex: B6C3F1/MALE, Route: INHALATION, Dose: 0, 12.8, 32, 80 PPM 6 HR/D 5 D/WK FOR 105 WK (STUDY DURATION: 106 WK), Dose: 0, 12.8, 32, 80 PPM 6 HR/D 5 D/WK FOR 105 WK (STUDY DURATION: 106 WK), Tumor Site: Type of Lesion: LUNG: ALVEOLAR/BRONCHIOLAR ADENOMA, ALVEOLAR/BRONCHIOLAR CARCINOMA, CIRCULATORY SYSTEM: HEMANGIOSARCOMA, HEMANGIOSARCOMA); “active; positive” (Species: RAT, Strain/Sex: F344/FEMALE, Route: INHALATION, Dose: 0, 12.8, 32, 80 PPM 6 HR/D 5 D/WK FOR 105 WK (STUDY DURATION: 106 WK), Dose: 0, 12.8, 32, 80 PPM 6 HR/D 5 D/WK FOR 105 WK (STUDY DURATION: 106 WK), Tumor Site: Type of Lesion: ORAL CAVITY: SQUAMOUS CELL PAPILLOMA, SQUAMOUS CELL PAPILLOMA OR CARCINOMA, THYROID GLAND: FOLLICULAR CELL ADENOMA OR CA). Also, the carcinogen call is, setting by setting: (Species: RAT, Strain/Sex: F344/MALE, Route: INHALATION, Dose: 0, 12.8, 32, 80 PPM 6 HR/D 5 D/WK FOR 105 WK (STUDY DURATION: 106 WK), Dose: 0, 12.8, 32, 80 PPM 6 HR/D 5 D/WK FOR 105 WK (STUDY DURATION: 106 WK), Tumor Site: Type of Lesion: ORAL CAVITY: SQUAMOUS CELL PAPILLOMA, SQUAMOUS PAPILLOMA OR CARCINOMA, THYROID GLAND: FOLLICULAR CELL ADENOMA OR CARCINO) “active; positive”; (Species: RAT, Strain/Sex: WISTAR/FEMALE, Route: INHALATION, Dose: 0, 10, 50 PPM 6 HR/D 5D/WK FOR 24 MO AT 72 WK 73 FEMALE RATS IN LOW DOSE GROUP DIED DUE TO MALFUNCTION IN EXPOSURE APPAR, Dose: 0, 10, 50 PPM 6 HR/D 5D/WK FOR 24 MO AT 72 WK 73 FEMALE RATS IN LOW DOSE GROUP DIED DUE TO MALFUNCTION IN EXPOSURE APPAR) “inactive; negative”; (Species: RAT, Strain/Sex: WISTAR/MALE, Route: INHALATION, Dose: 0, 10, 50 PPM 6 HR/D 5D/WK FOR 24 MO AT 72 WK 82 MALE RATS IN LOW DOSE GROUP DIED DUE TO MALFUNCTION IN EXPOSURE APPARAT, Dose: 0, 10, 50 PPM 6 HR/D 5D/WK FOR 24 MO AT 72 WK 82 MALE RATS IN LOW DOSE GROUP DIED DUE TO MALFUNCTION IN EXPOSURE APPARAT) “inactive; negative”.

For `Cc1cc2ccccc2c2cc([N+](=O)[O-])c3ccccc3c12`, the carcinogen call was “active; positive” (Species: MOUSE, Strain/Sex: SWISS/FEMALE, Route: INTRAPERITONEAL, Dose: 0, 100 NMOL (TOTAL DOSE) ADMINISTERED 1/7, 2/7 AND 4/7 ON DAY 1, 8 AND 15 RESPECTIVELY (STUDY DURATION: 32 WK), Tumor Site: Type of Lesion: LUNG: TUMOR) and “active; positive” (Species: MOUSE, Strain/Sex: SWISS/MALE, Route: INTRAPERITONEAL, Dose: 0, 100 NMOL (TOTAL DOSE) ADMINISTERED 1/7, 2/7 AND 4/7 ON DAY 1, 8 AND 15 RESPECTIVELY (STUDY DURATION: 32 WK), Tumor Site: Type of Lesion: LIVER: TUMOR, LUNG: TUMOR).

Regarding `c1ccc2cc3c(cc2c1)-c1cccc2cccc-3c12`, the carcinogen call is “active; positive” (Species: MOUSE, Route: DERMAL, Tumor Site: Type of Lesion: INTEGUMENTARY SYSTEM (SKIN)) and “active; positive” (Species: RAT, Strain/Sex: OSBORNE-MENDEL/FEMALE, Route: LUNG IMPLANT, Dose: 0, 0.16, 0.83, 4.15 MG IN BEESWAX/TRIOCTANOIN (STUDY DURATION: LIFETIME), Dose: 0, 0.16, 0.83, 4.15 MG IN BEESWAX/TRIOCTANOIN (STUDY DURATION: LIFETIME), Tumor Site: Type of Lesion: LUNG: EPIDERMOID CARCINOMA).

`C=C1C/C(=C/C)C(=O)O[C@@H]2CCN3CC=C(COC(=O)[C@@]1(O)CO)[C@H]23`: the carcinogen call reads like this: (Species: MOUSE, Strain/Sex: B6C3F1/FEMALE, Route: GAVAGE, Dose: 0, 3 MG/KG IN 0.1 M PHOSPHATE BUFFER 5 D/WK FOR 105 WK (STUDY DURATION: 105 WK), Tumor Site: Type of Lesion: LUNG (ALVEOLAR/BRONCHIOLAR): ADENOMA, ADENOMA OR CARCINOMA) “active; positive”; (Species: MOUSE, Strain/Sex: B6C3F1/MALE, Route: GAVAGE, Dose: 0, 0.1, 0.3, 1, 3 MG/KG IN 0.1 M PHOSPHATE BUFFER 5 D/WK FOR 105 WK (STUDY DURATION: 105 WK), Dose: 0, 0.1, 0.3, 1, 3 MG/KG IN 0.1 M PHOSPHATE BUFFER 5 D/WK FOR 105 WK (STUDY DURATION: 105 WK), Tumor Site: Type of Lesion: LIVER: HEMANGIOSARCOMA) “active; positive”; (Species: RAT, Strain/Sex: F344/FEMALE, Route: GAVAGE, Dose: 0, 0.01, 0.033, 0.1, 0.33 MG/KG IN 0.1 M PHOSPHATE BUFFER 5 D/WK FOR 105 WK (STUDY DURATION: 105 WK), Dose: 0, 0.01, 0.033, 0.1, 0.33 MG/KG IN 0.1 M PHOSPHATE BUFFER 5 D/WK FOR 105 WK (STUDY DURATION: 105 WK)) “inactive; negative”; (Species: RAT, Strain/Sex: F344/FEMALE, Route: GAVAGE, Dose: 0, 1 MG/KG IN 0.1 M PHOSPHATE BUFFER 5 D/WK FOR 97 WK (STUDY DURATION: 97 WK), Tumor Site: Type of Lesion: LIVER: HEMANGIOSARCOMA, HEPATOCELLULAR ADENOMA, ADENOMA OR CARCINOMA, HEMATOPOIETIC SYSTEM: MONONUCLEAR CELL LEUKEMIA) “active; positive”; (Species: RAT, Strain/Sex: F344/MALE, Route: GAVAGE, Dose: 0, 1 MG/KG IN 0.1 M PHOSPHATE BUFFER 5 D/WK FOR 72 WK (STUDY DURATION: 72 WK), Tumor Site: Type of Lesion: LIVER: HEMANGIOSARCOMA, HEPATOCELLULAR ADENOMA, HEMATOPOIETIC SYSTEM: MONONUCLEAR CELL LEUKEMIA) “active; positive”.

Turning to `CC(Cl)Cl`, the carcinogen call is “equivocal” (Species: MOUSE, Strain/Sex: B6C3F1/FEMALE, Route: GAVAGE, Dose: 0, 1665, 3331 MG/KG 5/WK FOR 78 WK (STUDY DURATION: 91 WK), Dose: 0, 1665, 3331 MG/KG 5/WK FOR 78 WK (STUDY DURATION: 91 WK), Tumor Site: Type of Lesion: UTERUS: ENDOMETRIAL STROMAL POLYP); “inactive; negative” (Species: MOUSE, Strain/Sex: B6C3F1/MALE, Route: GAVAGE, Dose: 0, 1,442, 2,885 MG/KG 5/WK FOR 78 WK (STUDY DURATION: 91 WK), Dose: 0, 1,442, 2,885 MG/KG 5/WK FOR 78 WK (STUDY DURATION: 91 WK)); “equivocal” (Species: RAT, Strain/Sex: OSBORNE-MENDEL/FEMALE, Route: GAVAGE, Dose: 0, 475, 950 MG/KG 5/WK FOR 78 WK (STUDY DURATION: 111 WK), Dose: 0, 475, 950 MG/KG 5/WK FOR 78 WK (STUDY DURATION: 111 WK), Tumor Site: Type of Lesion: MAMMARY GLAND: ADENOCARCINOMA, LUNG: HEMANGIOSARCOMA, SPLEEN: HEMANGIOSARCOMA, Tumor Site: Type of Lesion: MAMMARY GLAND: ADENOCARCINOMA, LUNG: HEMANGIOSARCOMA, SPLEEN: HEMANGIOSARCOMA); “inactive; negative” (Species: RAT, Strain/Sex: OSBORNE-MENDEL/MALE, Route: GAVAGE, Dose: 0, 382, 764 MG/KG 5/WK FOR 78 WK (STUDY DURATION: 111 WK), Dose: 0, 382, 764 MG/KG 5/WK FOR 78 WK (STUDY DURATION: 111 WK)).

The record behind these values is PubChem BioAssay AID1259411 (Chemical Carcinogenesis Research Information System (CCRIS), 2018).
